Assay results published in patent US6790865B2, “2-methylpropionic acid derivatives and pharmaceutical compositions comprising the same” (Kissei Pharmaceutical Co., Ltd., priority 1998, dated 2004).
pEC50: −log10 of the molar value. Where a name gives a salt, the structure may show the parent alone.

How the values were obtained:
[1] = biological target: T1, β2-adrenoceptor (Rattus norvegicus, UniProt P10608); assay: β2-adrenoceptor stimulating effects, isolated pregnant rat uterus contraction inhibition (Magnus method); assay type: cell-based; settings: isolated uteri of pregnant SD rats (pregnancy day 21); spontaneous contractions summed over 5 minutes; read-out: EC50 (concentration producing 50% inhibition of uterine contraction)
T1 construct: Uteri of pregnant SD rats (pregnancy day 21) were isolated; from tissue; host or cells: longitudinal uterine strips of pregnant SD rats (day 21)
Method: Also, uteri of pregnant rats were isolated and preparations were made. The experiment was conducted according to the Magnus method. The sum of uterine contractions during 5 minutes before the addition of the drug was expressed as 100%. The drug was added cumulatively. The β2-adrenoceptor stimulating effects were evaluated as the concentration of the drug required when the sum of the contractions during 5 minutes after the addition of the drug produces 50% decrease of the sum of the contractions during 5 minutes before the addition of the drug (i.e., EC50 value).
The Experiment for Measuring β2-Adrenoceptor Stimulating Effects
Uteri of pregnant SD rats (pregnancy day 21) were isolated and longitudinal strips of approximately 15 mm in length and approximately 5 mm in width free from the basal plate were prepared. The experiment was conducted according to the Magnus method. The preparations with a tension of 0.5 g were exposed to Locke-Ringer solution maintained at 37° C. and gassed with a mixture of 95% oxygen and 5% carbon dioxide. Spontaneous contractions of myometrium were isometrically measured with a force-displacement transducer and recorded on a rectigram. The drug was cumulatively added to the Magnus bath every 5 minutes. The drug efficacy was evaluated as the concentration of the drug required to produce 50% of the inhibition of uterine contraction (i.e., EC50 value) by comparing the sum of uterine contraction during 5 minutes after the addition of the drug with the sum of uterine contractions during 5 minutes before the addition of the drug which was expressed as 100%.

[2] = biological target: T2, β1-adrenoceptor (Rattus norvegicus, UniProt P18090); assay: β1-adrenoceptor stimulating effects, isolated rat atria heart rate increase (Magnus method); assay type: cell-based; settings: isolated male SD rat atria; 100% = heart rate increase after 10^−8M isoproterenol; read-out: EC50 (concentration producing 50% increase of heart rate)
T2 construct: Atria of male SD rats (250 to 400 g in body weight) were isolated; from tissue; host or cells: isolated atria of male SD rats
Method: Namely, atria of rats were isolated and preparations were made. The experiment was conducted according to the Magnus method. The increment of heart rate after the addition of isoproterenol (10^−8M) was expressed as 100%. The drug was added cumulatively. The β1-adrenoceptor stimulating effects were evaluated as the concentration of the drug required to produce 50% increase of heart rate (i.e., EC50 value).
The Experiment for Measuring β1-Adrenoceptor Stimulating Effects
Atria of male SD rats (250 to 400 g in body weight) were isolated and the experiment was conducted according to the Magnus method. The preparations with a tension of 0.5 g were exposed to Krebs-Henseleit solution maintained at 37° C. and gassed with a mixture of 95% oxygen and 5% carbon dioxide. The cardiac contractility was isometrically measured with a force-displacement transducer, and heart rate was recorded on a rectigram via a tachometer. The drug was added cumulatively. The drug efficacy was evaluated as the concentration of the drug required to produce 50% increase of heart rate per minute (i.e., EC50 value). In this experiment, increase of heart rate per minute after addition of 10^−8M of isoproterenol was expressed as 100%.

[3] = biological target: β3-adrenoceptor (Mustela putorius furo, UniProt M3YEU4); assay: β3-adrenoceptor stimulating effects, isolated ferret urinary bladder smooth muscle relaxation (Magnus method); assay type: cell-based; settings: isolated male ferret urinary bladder smooth muscle strips; 0% = maximal relaxation after 10^−5M forskolin; read-out: EC50 (concentration producing 50% decrease of urinary bladder tension)
Method: Namely, urinary bladders of ferrets were isolated and preparations were made. The experiment was conducted according to the Magnus method. The […] tension without the addition of the drug is expressed as 100%, and the tension of maximal relaxation after the addition of 10^−5M of forscolin was expressed as 0%. The drug was added cumulatively. The β3-adrenoceptor stimulating effects were evaluated as the concentration of the drug required to produce 50% decrease of the tension (i.e., EC50 value) (The Japanese Journal of Urology, Vol.89, No.2, p.272 (1998)).
The Experiment for Measuring β3-Adrenoceptor Stimulating Effects
Urinary bladders of male ferrets (1100 to 1400 g in body weight) were isolated and urinary bladder smooth muscle strips of approximately 10 mm in length and approximately 2 mm in width were prepared. The experiment was conducted according to the Magnus method. The preparations with a tension of 1 g were exposed to Krebs-Henseleit solution maintained at 37° C. and gassed with a mixture of 95% oxygen and 5% carbon dioxide. Basal tensions of urinary bladder were isometrically measured with a force-displacement transducer and recorded on a rectigram. […] In this experiment, tension of urinary bladder smooth muscle before the addition of the drug was expressed as 100% and tension of maximal relaxation after the addition of 10^−5M concentration of forskolin was expressed as 0%.

[4] = system: male ICR rats; assay: Acute toxicity test; assay type: in vivo
Description: Furthermore, the compounds represented by the above general formula (I) of the present invention are very safe compounds.

T1 sequence (P10608 whole entry): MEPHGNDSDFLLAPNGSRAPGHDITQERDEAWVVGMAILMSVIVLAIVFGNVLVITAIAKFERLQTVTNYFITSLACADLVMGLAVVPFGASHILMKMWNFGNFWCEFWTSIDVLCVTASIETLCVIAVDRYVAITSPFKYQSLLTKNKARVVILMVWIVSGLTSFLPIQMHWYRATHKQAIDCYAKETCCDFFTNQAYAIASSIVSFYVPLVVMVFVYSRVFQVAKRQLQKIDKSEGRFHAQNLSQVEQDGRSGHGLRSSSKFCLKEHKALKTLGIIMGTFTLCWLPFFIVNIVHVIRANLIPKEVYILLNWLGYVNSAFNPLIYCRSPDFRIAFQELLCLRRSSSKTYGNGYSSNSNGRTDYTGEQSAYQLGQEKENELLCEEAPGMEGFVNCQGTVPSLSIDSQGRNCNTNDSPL
T2 sequence (P18090 whole entry): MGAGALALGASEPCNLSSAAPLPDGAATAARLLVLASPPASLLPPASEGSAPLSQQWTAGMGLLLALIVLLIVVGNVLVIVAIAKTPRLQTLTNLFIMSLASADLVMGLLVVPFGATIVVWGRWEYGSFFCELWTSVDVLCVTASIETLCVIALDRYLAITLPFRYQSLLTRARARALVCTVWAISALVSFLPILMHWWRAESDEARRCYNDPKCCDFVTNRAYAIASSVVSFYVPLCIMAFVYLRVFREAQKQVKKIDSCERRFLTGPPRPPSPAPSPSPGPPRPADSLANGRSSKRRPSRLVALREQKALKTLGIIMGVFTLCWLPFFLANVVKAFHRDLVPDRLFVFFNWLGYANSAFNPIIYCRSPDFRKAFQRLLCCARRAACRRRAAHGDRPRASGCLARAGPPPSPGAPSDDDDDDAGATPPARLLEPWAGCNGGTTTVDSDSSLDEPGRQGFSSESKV
Sequence of β3-adrenoceptor (M3YEU4 entry or part of it): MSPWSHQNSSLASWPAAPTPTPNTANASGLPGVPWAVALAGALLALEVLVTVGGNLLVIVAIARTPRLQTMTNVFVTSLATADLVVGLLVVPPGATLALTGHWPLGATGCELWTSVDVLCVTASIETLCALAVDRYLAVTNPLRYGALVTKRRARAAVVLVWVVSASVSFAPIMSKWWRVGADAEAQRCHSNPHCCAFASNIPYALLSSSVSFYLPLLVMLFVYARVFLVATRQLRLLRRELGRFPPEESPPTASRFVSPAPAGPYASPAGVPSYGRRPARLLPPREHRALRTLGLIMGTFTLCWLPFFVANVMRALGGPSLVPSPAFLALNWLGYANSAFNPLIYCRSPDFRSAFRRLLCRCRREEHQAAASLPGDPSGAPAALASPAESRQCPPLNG

Structure (SMILES)	pEC50 [1]	pEC50 [2]	pEC50 [3]	death of animals in acute toxicity test ([4]; male ICR rats of 4 weeks age, intravenous, 400 mg/kg, during 24 hours after administration, 400 mg/kg)	death of animals in acute toxicity test ([4]; male ICR rats of 4 weeks age, intravenous, 400 mg/kg, during 24 hours after administration; 400 mg/kg))
C[C@H](Cc1ccc(OCC(=O)O)cc1)NC[C@H](O)c1cccc(Cl)c1 [BRL-37344, reference compound]	8.05	6.57	8.80	–	–
CCOC(=O)C(C)(C)Oc1ccc(CCN[C@@H](C)[C@H](O)c2ccc(O)cc2)c(Cl)c1 [Compound 7, Ethyl 2-[3-chloro-4-[2-[[(1S,2R)-2-hydroxy-2-(4-hydroxy-phenyl)-1-methylethyl]amino]ethyl]phenoxy]-2-methyl-propionate hydrochloride]	7.35	6.52	–	–	–
C[C@H](NCCc1ccc(OC(C)(C)C(=O)O)cc1Cl)[C@H](O)c1ccc(O)cc1 [Compound 9, 2-[3-Chloro-4-[2-[[(1S,2R)-2-hydroxy-2-(4--hydroxyphenyl)-1-methylethyl]amino]ethyl]phenoxy]-2-methylpropionic acid]	5.51	4.46	–	no death was observed	No death of animals was observed
C[C@H](NCCc1ccc(OC(C)(C)C(=O)O)cc1)[C@H](O)c1ccc(O)cc1 [Compound 10, 2-[4-[2-[[(1S,2R)-2-Hydroxy-2-(4-hydroxyphenyl)-1-methyl-ethyl]amino]ethyl]phenoxy]-2-methylpropionic acid]	5.41	–	–	–	–
C[C@H](NCCc1ccc(OC(C)(C)C(=O)O)c(Cl)c1)[C@H](O)c1ccc(O)cc1 [Compound 11, 2-[2-Chloro-4-[2-[[(1S,2R)-2-hydroxy-2-(4-hydroxyphenyl)-1-methylethyl]amino]ethyl]phenoxy]-2-methylpropionic acid]	4.42	< 4.00	–	–	–
Cc1cc(CCN[C@@H](C)[C@H](O)c2ccc(O)cc2)ccc1OC(C)(C)C(=O)O [Compound 12]	< 4.00	< 4.00	–	–	–
C[C@H](NCCc1ccc(NC(C)(C)C(=O)O)cc1)[C@H](O)c1ccc(O)cc1 [Compound 13, 2-[[4-[2-[[(1S,2R)-2-Hydroxy-2-(4-hydroxyphenyl)-1-methyl-ethyl]amino]ethyl]phenyl]amino]-2-methylpropionic acid]	4.96	4.41	–	–	–
C[C@H](NCCc1ccc(NC(C)(C)C(=O)O)cc1Cl)[C@H](O)c1ccc(O)cc1 [Compound 14, 2-[[3-Chloro-4-[2-[[(1S,2R)-2-hydroxy-2-(4-hydroxyphenyl)-1-methylethyl]amino]ethyl]phenyl]amino]-2-methylpropionic acid]	5.85	5.66	–	–	–
